Activity calls are given as the source filed them. The rule behind the calls is not given here.
Experiments:
Assay type in all cases: functional, cell-based
[1] = system: Premature termination codon; assay: Readthrough activity against UGA type PTC 5'-TTGAAAGAGCAATAAAATGGCTTCAAC-3' from DMD mdx mouse overexpressed in COS7 cells assessed as ratio of luciferase activity to beta-galactosidase activity at 200 uM incubated for 48 hrs by Dual luciferase reporter assay
[2] = system: Premature termination codon; assay: Readthrough activity against UGA type PTC 5'-TTGAAAGAGCAATAAAATGGCTTCAAC-3' from DMD mdx mouse overexpressed in COS7 cells assessed as ratio of luciferase activity to beta-galactosidase activity incubated for 48 hrs by Dual luciferase reporter assay; conditions: dose 6.25-200 µM
[3] = system: Premature termination codon; assay: Readthrough activity against UGA type PTC 5'-TTGAAAGAGCAATAAAATGGCTTCAAC-3' from DMD mdx mouse overexpressed in COS7 cells assessed as readthrough efficiency at 200 uM incubated for 48 hrs by Dual luciferase reporter assay relative to control
[4] = system: Premature termination codon; assay: Readthrough activity against UAA type PTC 5'-TTGAAAGAGCAATAAAATGGCTTCAAC-3' from DMD mdx mouse overexpressed in COS7 cells assessed as ratio of luciferase activity to beta-galactosidase activity at 200 uM incubated for 48 hrs by Dual luciferase reporter assay
[5] = system: Premature termination codon; assay: Readthrough activity against UAG type PTC 5'-TTGAAAGAGCAATAAAATGGCTTCAAC-3' from DMD mdx mouse overexpressed in COS7 cells assessed as ratio of luciferase activity to beta-galactosidase activity at 200 uM incubated for 48 hrs by Dual luciferase reporter assay
[6] = system: Premature termination codon; assay: Readthrough activity against UGA type PTC 5'-TTGAAAGAGCAATAAAATGGCTTCAAC-3' from DMD mdx mouse overexpressed in COS7 cells assessed as ratio of luciferase activity to beta-galactosidase activity at 6.25 to 200 uM incubated for 48 hrs by Dual luciferase reporter assay; conditions: dose 6.25-200 µM
[7] = system: Premature termination codon; assay: Potency index, ratio of G418 to test compound for readthrough activity against UGA type PTC 5'-TTGAAAGAGCAATAAAATGGCTTCAAC-3' from DMD mdx mouse overexpressed in COS7 cells at 200 uM incubated for 48 hrs by Dual luciferase reporter assay
[8] = system: Premature termination codon; assay: Potency index, ratio of 2,6-diaminopurine to test compound for readthrough activity against UGA type PTC 5'-TTGAAAGAGCAATAAAATGGCTTCAAC-3' from DMD mdx mouse overexpressed in COS7 cells at 200 uM incubated for 48 hrs by Dual luciferase reporter assay

Row | Structure (SMILES) | Ratio [1] | Ratio [4] | Ratio [5] | further results
1 | CC(C)C[C@H](N)C(=O)N[C@H](CC(=O)NN(C)CC(=O)O)[C@H]1C[C@H]1CN | 3.08 | – | – | –
2 | CN[C@@H]1[C@@H](O)[C@@H](O[C@@H]2[C@@H](O)[C@H](O[C@H]3O[C@H]([C@@H](C)O)[C@@H](O)[C@H](O)[C@H]3N)[C@@H](N)C[C@H]2N)OC[C@]1(C)O | 6.01 | 4.5 | 4.68 | Activity [2]: Dose-Dependent Effect; Activity [3]: 1.71%
3 | O=C(O)c1cccc(-c2noc(-c3ccccc3F)n2)c1 | – | – | – | Activity [6]: Active
4 | Nc1nc(N)c2nc[nH]c2n1 | – | – | – | Activity [2]: Dose-Dependent Effect
5 | CCCCCCCCC[C@H](N)C(=O)N[C@@H](CCCN)CC(=O)NN(C)CC(=O)O | 19.5 | – | – | –
6 | CN(CC(=O)O)NC(=O)C[C@@H](N)CCCN | 2.69 | 1.22 | 1.95 | –
7 | CCCCCCC(=O)NC[C@H](N)C(=O)N[C@H](CC(=O)NN(C)CC(=O)O)[C@H]1C[C@H]1CN | 1.38 | – | – | –
8 | COCCCCCCC[C@H](N)C(=O)N[C@H](CC(=O)NN(C)CC(=O)O)[C@H]1C[C@H]1CN | 1.94 | – | – | –
9 | CN(CC(=O)O)NC(=O)C[C@@H](NC(=O)[C@@H](N)CCCCCCCO)[C@H]1C[C@H]1CN | 3.25 | – | – | –
10 | CCCCCCCCC[C@H](N)C(=O)N[C@H](CC(=O)NN(C)CC(=O)O)[C@H]1C[C@H]1CN | 23 | 1.81 | 11.4 | fold change (FC) [7]: 2; Activity [2]: Dose-Dependent Effect; Activity [3]: 2.88%; fold change (FC) [8]: 2
11 | CCCC(=O)NCCCC[C@H](N)C(=O)N[C@H](CC(=O)NN(C)CC(=O)O)[C@H]1C[C@H]1CN | 2.05 | – | – | –
12 | CC(C)C[C@@H](N)C(=O)N[C@H](CC(=O)NN(C)CC(=O)O)[C@H]1C[C@H]1CN | 1.01 | – | – | –
13 | CN(CC(=O)O)NC(=O)C[C@H](N)C[C@@H](O)CN | 1.55 | 1.31 | 0.91 | –
14 | CCCCCC/C=C/C[C@H](N)C(=O)N[C@H](CC(=O)NN(C)CC(=O)O)[C@H]1C[C@H]1CN | 16.9 | – | – | –
15 | CN(CC(=O)O)NC(=O)C[C@@H](N)[C@H]1C[C@H]1CN | 8.36 | 1.3 | 6.24 | Activity [2]: Dose-Dependent Effect

Reference: ChEMBL document CHEMBL5390306, “Development of Conformationally Restricted Negamycin Derivatives for Potent Readthrough Activity” (ACS Med Chem Lett, 2023)
